Laboratory results published in patent US9421193B2, “Benzothiazole derivatives and a use thereof for the treatment of cancer” (Korea Institute of Radiological & Medical Sciences, priority 2014, dated 2016).

Tests used:
[1] = test system: non-small cell lung cancer cell strain A549; assay: Trypan blue live cell count (cell viability); assay type: cell-based, human; details: for cancer cell apoptosis effect: 50 μM; for cancer cell apoptosis effect with respect to concentration and incubation time: 10-50 uM, 8 to 72 hours, FIG. 3A; for IC50: Homo sapiens, time taken to reach the IC50 48 hours
Experimental: (§1) Whether the cancer cell growth inhibitory effects of the compounds PB01 and PB11 on the non-small cell lung cancer cell strains is associated with apoptosis was investigated. The cell growth inhibitory effects were evaluated by a trypan blue assay, and cell shapes were observed using an inverted microscope. The shapes of cell nuclei were observed via Hoeschst 33342 staining. Degrees of inducing apoptosis were quantized by flow cytometry (fluorescent activated cell sorting (FACS)).
(§2) After about 5×10^3 cells per well of each of the human non-small cell lung cancer cell strains A549 and H460 were portioned into a 96-well plate, about 10 uM to about 50 uM of the compounds PB01 or PB11 in 200 ul of culture solution were added into the wells, and incubated for about 8 to 72 hours. Cells were collected from the incubation product, and centrifuged at about 2,000 rpm for 5 minutes. After removing a supernatant, the remaining cells were mixed with 1 mL of phosphate-buffered saline (PBS) to obtain a cell suspension, which was then mixed with an equal amount of 0.5% trypan blue (Gibco BRL), followed by treatment for about 1 minute. The number of live cells was counted using a phase-contrast) microscope. The live cell counting was repeated three times, and an average live cell count and a standard error were calculated using a Microsoft Excel program. Cell viability graphs with respect to compound concentration and incubation time were obtained. The same experiment was performed with 50 μM of the compound PB01, PB11 50 μM of the compound PB11, or 150 μM of the compound PB12 150 μM, and cell viability graphs with respect to compound concentration and incubation time were obtained.

[2] = test system: non-small cell lung cancer cell strain H460; assay: Trypan blue live cell count (cell viability); assay type: cell-based, human; details: for cancer cell apoptosis effect: 50 μM; for cancer cell apoptosis effect with respect to concentration and incubation time: FIGS. 3A and 3B, PB12 at 150 μM; for IC50: Homo sapiens, NCI-H460, time taken to reach the IC50 48 hours
Experimental: as §1, §2

[3] = test system: non-small cell lung cancer cell strain A549; assay: Apoptosis ratio, Annexin V flow cytometry; assay type: cell-based, human; details: 50 μM, about 40 hours, FIG. 9A
Experimental: (§3) About 5×10^5 cells per well of each of the non-small cell lung cancer cell strains A549 and H460 were portioned into a 6-well plate and then incubated with the compounds PB01 or PB11 for about 40 hours in the same manner as described above. A cell layer was washed with PBS and then treated with trypsin-EDTA solution to isolate cells. The isolated cells were collected and stained with an Annexin V Flous Staining kit (available Roche Applied Science, Penzberg, Germany) in a dark condition for about 30 minutes. The stained cells were analyzed by flow cytometry using a FACScan™ (available from Becton Dicknson) to count the number of dead cells and then calculate an apoptosis ratio. The same experiment was performed with 50 μM of PB01, 50 μM of PB11, or 150 μM of PB12 in the same manner as described above. The graphs of cell viability with respect to compound concentration and incubation time obtained based on the experimental results are shown in FIGS. 9A and 9B.

[4] = test system: non-small cell lung cancer cell strain H460; assay: Apoptosis ratio, Annexin V flow cytometry; assay type: cell-based, human; details: about 40 hours, 50 μM PB01, 50 μM PB11, 150 μM PB12, FIGS. 9A and 9B
Experimental: as §3

[5] = test system: non-small cell lung cancer cell strain A549; assay: Cancer cell growth inhibition, WST-1 cell viability; assay type: cell-based, human; details: compared among cell strains
Experimental: (§4) Cancer cell growth inhibitory effects of the compounds PB01 and PB11 of Examples 5 and 3 identified as PPAR-γ ligands were evaluated. Growth inhibitory effects of the compounds PB01 and PB11 of Examples 5 and 3 on various cancer cells, including human non-small cell lung cancer cell strains (A549, H460), breast cancer cell strains (MCF-7, T-470), colorectal cancer cell strains (LoVo, SW480), and leukocytes cancer cell strains (HL-60, K562) (American Type Culture Collection, Manassas, Va.), were evaluated using WST-1 method. About 5×10^3 cells per well of each type of cancer cell strains were portioned into a 96-well plate, and incubated with different concentrations of each of the compounds PB01 and PB11 of Examples 5 and 3 in 200 ul of a culture solution for 24 hours, 48 hours, and 72 hours. After the incubation for the different durations, 10 ul of a WST-1 solution was added to each well, followed by incubation at about 37° C. for about 1 hour. Absorbance at 450 nm was measured to determine cell viability.

[6] = test system: non-small cell lung cancer cell strain H460; assay: as above; assay type: cell-based, human; details: compared among cell strains
Experimental: as §4

[7] = test system: non-cancer lung cell strain MRC-5; assay: Cell growth inhibition in non-cancer lung cells; assay type: cell-based; details: MRC-5 non-cancer lung cells
[8] = test system: non-cancer lung cell strain MRC-9; assay: Cell growth inhibition in non-cancer lung cells; assay type: cell-based; details: MRC-9 non-cancer lung cells

| IC50 [1] | IC50 [2] | Compound | cancer cell apoptosis effect [1] | cancer cell apoptosis effect with respect to concentration and incubation time [1] | cancer cell apoptosis effect [2] | cancer cell apoptosis effect with respect to concentration and incubation time [2] | apoptosis induction (Annexin V) [3] | apoptosis induction (Annexin V) [4] | cancer cell growth inhibition [5] | cancer cell growth inhibition [6] | cell growth inhibitory effect [7] | cell growth inhibitory effect [8] |
| --- | --- | --- | --- | --- | --- | --- | --- | --- | --- | --- | --- | --- |
| 50 µM | 50 µM | COC1CCC(C(=O)Nc2ccc3nc(SCc4c(C)noc4C)sc3c2)CC1 (centres unmarked) [PB01] | remarkable cancer cell apoptosis effects | improved cancer cell apoptosis effects with increases in concentration and incubation time | remarkable cancer cell apoptosis effects | improved cancer cell apoptosis effects with increases in concentration and incubation time | kill the non-small cell lung cancer cells by inducing apoptosis | kill the non-small cell lung cancer cells by inducing apoptosis | most effective | most effective | nearly zero | nearly zero |
| 50 µM | 50 µM | Cc1noc(C)c1CSc1nc2ccc(NC(=O)C3CCC(=O)CC3)cc2s1 [PB11] | remarkable cancer cell apoptosis effects | improved cancer cell apoptosis effects with increases in concentration and incubation time | remarkable cancer cell apoptosis effects | improved cancer cell apoptosis effects with increases in concentration and incubation time | kill the non-small cell lung cancer cells by inducing apoptosis | kill the non-small cell lung cancer cells by inducing apoptosis | – | – | – | – |
